According to the kinase profiling compilation of Christmann-Franck et al. (2016):

How the values were obtained:
Test in all cases: KINOMEscan competition binding
Details in all cases: compound 10.0 µM
[1] = tested on: ABL1 (human), P00519 [T315I]
[2] = target: ABL1 (human) (UniProt P00519)
[3] = tested on: ABL1 (human), P00519 [Q252H]
[4] = target: DYRK1A (human) (UniProt Q13627)
[5] = tested on: CPK1 (P.falciparum)
[6] = target: GSG2 (human) (UniProt Q8TF76)
[7] = target: WNK3 (human) (UniProt Q9BYP7)
WNK3 (human), sequence (Q9BYP7 whole entry, looked up): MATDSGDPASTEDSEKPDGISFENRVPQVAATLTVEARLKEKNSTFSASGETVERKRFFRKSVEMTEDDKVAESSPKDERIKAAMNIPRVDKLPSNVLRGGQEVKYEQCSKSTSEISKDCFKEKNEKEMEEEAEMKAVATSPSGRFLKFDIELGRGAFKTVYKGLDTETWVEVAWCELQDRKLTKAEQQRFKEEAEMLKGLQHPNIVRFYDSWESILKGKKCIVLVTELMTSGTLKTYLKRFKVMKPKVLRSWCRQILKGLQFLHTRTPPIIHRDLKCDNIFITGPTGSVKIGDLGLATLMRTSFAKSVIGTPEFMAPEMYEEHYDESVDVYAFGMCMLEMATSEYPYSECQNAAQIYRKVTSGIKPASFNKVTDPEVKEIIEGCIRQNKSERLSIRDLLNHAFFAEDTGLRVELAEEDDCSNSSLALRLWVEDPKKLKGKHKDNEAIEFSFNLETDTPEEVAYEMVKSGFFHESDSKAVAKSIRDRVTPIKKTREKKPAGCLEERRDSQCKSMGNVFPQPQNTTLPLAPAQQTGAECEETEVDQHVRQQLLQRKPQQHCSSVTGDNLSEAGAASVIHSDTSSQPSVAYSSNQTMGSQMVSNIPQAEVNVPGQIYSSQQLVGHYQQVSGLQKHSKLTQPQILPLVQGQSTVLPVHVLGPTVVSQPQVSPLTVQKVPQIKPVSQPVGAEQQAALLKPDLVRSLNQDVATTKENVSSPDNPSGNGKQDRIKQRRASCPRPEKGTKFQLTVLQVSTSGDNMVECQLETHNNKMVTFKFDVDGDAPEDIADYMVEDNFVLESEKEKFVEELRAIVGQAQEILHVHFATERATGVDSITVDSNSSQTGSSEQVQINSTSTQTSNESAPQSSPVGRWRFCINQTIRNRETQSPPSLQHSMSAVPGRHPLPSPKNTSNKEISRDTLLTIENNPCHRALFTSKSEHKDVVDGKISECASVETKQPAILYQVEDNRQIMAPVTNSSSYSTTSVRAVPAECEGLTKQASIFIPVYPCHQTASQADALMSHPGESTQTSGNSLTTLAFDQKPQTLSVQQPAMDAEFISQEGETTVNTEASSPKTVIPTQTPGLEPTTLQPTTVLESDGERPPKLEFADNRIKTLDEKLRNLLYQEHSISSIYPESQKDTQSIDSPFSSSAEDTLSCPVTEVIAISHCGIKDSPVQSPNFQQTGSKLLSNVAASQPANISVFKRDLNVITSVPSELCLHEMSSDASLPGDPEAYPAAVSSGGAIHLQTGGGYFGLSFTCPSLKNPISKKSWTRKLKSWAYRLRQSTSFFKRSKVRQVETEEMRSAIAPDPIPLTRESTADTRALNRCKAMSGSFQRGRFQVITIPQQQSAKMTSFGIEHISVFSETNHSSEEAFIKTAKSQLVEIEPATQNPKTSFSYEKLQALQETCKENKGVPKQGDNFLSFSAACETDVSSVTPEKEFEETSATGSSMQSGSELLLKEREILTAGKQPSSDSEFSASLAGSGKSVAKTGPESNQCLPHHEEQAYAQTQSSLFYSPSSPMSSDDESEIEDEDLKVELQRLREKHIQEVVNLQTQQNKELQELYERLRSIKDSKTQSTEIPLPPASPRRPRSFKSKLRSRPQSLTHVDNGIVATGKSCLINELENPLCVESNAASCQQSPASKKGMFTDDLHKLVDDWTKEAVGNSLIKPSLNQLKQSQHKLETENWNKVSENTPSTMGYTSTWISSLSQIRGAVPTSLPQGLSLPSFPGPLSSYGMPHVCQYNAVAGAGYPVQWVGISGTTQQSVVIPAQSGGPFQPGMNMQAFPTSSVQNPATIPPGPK

[8] = target: SGK1 (human) (UniProt O00141)
SGK1 (human), sequence (O00141 whole entry, looked up): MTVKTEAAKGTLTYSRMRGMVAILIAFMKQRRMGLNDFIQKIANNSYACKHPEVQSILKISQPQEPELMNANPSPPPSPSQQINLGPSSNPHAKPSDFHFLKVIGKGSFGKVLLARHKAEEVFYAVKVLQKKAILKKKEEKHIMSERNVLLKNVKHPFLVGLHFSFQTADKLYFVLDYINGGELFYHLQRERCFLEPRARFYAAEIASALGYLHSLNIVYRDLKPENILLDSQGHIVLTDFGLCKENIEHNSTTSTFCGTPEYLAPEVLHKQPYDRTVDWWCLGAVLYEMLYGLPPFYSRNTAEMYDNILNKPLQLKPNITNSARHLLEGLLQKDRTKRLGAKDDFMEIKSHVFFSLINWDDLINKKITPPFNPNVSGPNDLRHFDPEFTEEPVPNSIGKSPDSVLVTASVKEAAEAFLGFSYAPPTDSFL

[9] = target: WNK1 (human) (UniProt Q9H4A3)
[10] = target: RPS6KA3 KD2 (human) (UniProt P51812)
RPS6KA3 KD2 (human), sequence (P51812 whole entry, looked up): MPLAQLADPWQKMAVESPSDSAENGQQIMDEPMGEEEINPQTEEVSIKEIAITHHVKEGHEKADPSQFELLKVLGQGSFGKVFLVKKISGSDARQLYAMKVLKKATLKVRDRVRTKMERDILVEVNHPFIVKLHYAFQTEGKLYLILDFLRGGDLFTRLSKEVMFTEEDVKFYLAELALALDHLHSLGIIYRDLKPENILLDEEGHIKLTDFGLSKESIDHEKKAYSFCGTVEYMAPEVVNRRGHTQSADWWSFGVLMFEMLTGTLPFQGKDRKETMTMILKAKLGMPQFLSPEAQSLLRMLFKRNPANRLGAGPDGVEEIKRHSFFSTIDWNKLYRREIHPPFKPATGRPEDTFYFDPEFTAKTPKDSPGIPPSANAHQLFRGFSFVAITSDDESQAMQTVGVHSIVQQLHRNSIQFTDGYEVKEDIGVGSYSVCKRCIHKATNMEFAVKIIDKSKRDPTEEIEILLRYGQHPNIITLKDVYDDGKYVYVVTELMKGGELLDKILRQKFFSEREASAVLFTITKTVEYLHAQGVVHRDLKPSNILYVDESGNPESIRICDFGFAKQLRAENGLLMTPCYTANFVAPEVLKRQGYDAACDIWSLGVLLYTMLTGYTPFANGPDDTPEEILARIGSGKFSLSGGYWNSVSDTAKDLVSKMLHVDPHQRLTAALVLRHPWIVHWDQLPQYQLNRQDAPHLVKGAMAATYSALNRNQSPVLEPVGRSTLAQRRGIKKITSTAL

[11] = target: BUB1 (human) (UniProt O43683)
BUB1 (human), sequence (O43683 whole entry, looked up): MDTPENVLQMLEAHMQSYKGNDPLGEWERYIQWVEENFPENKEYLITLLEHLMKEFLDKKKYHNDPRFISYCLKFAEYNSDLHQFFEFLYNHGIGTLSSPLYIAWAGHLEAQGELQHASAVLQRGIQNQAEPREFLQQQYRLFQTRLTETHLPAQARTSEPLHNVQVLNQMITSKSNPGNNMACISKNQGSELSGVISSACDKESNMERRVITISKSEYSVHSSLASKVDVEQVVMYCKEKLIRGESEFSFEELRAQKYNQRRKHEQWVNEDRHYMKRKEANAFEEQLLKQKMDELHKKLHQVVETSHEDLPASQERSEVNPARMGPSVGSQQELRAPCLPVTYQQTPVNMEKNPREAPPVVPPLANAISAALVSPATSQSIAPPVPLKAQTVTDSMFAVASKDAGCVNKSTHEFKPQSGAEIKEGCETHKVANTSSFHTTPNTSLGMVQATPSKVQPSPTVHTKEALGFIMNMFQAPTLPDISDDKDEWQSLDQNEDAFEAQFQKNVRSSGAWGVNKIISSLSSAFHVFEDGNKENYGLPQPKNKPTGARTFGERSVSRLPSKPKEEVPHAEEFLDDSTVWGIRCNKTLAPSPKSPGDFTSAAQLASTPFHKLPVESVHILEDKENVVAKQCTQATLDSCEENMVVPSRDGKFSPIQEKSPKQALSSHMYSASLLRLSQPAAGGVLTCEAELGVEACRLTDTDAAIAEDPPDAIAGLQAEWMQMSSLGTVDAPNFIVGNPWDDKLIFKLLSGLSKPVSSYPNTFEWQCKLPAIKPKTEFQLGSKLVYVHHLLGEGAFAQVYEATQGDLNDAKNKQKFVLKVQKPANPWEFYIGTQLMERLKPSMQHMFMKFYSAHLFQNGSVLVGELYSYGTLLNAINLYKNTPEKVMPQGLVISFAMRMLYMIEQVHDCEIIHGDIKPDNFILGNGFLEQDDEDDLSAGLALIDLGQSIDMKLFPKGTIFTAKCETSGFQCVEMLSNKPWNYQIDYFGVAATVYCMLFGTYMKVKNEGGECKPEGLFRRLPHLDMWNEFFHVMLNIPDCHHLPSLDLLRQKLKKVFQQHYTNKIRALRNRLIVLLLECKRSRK

GSG2 (human), sequence (Q8TF76 whole entry, looked up): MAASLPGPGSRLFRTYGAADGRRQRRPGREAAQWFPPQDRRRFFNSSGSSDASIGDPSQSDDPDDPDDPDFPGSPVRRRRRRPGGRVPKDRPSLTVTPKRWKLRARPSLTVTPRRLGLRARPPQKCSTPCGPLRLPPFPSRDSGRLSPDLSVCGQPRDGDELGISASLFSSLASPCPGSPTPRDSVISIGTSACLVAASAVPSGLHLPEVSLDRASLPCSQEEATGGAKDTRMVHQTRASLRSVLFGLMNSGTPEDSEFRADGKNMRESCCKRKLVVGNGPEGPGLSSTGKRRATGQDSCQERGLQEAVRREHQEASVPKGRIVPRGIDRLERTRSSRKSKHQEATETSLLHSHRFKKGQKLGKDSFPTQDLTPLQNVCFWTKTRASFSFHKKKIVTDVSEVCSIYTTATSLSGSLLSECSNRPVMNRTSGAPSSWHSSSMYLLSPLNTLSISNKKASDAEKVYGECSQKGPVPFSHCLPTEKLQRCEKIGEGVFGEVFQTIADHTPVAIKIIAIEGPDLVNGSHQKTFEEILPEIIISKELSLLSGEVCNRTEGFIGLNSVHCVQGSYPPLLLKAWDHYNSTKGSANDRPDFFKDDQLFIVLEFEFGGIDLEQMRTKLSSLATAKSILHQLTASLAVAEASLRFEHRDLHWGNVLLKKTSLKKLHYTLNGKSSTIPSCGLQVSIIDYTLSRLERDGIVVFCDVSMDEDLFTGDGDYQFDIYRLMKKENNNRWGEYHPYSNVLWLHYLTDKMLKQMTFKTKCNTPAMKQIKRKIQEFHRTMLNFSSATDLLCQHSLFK

kinase still bound, per cent of control [1] [%] | kinase still bound, per cent of control [2] [%] | kinase still bound, per cent of control [3] [%] | Structure (SMILES) | kinase still bound, per cent of control [4] [%] | kinase still bound, per cent of control [5] [%] | also measured
100 | 100 | 100 | Cc1ccc(C(=O)Nc2cccc(C(F)(F)F)c2)cc1Nc1cncc(C(N)=O)c1 |  |  | 
100 | 100 | 100 | COc1cc(C(=O)NC2CCN(C)CC2)ccc1Nc1ncc2c(n1)N(C1CCCC1)CCC(=O)N2C(C)C | 100 |  | 
 |  |  | Cc1ccc(NC(=O)c2cccc(C(C)(C)C#N)c2)cc1Nc1ccc2ncn(C)c(=O)c2c1 | 79 | 0.75 | 
100 | 100 | 100 | CC[C@@H]1C(=O)N(C)c2cnc(Nc3ccc(C(=O)NC4CCN(C)CC4)cc3OC)nc2N1C1CCCC1 |  |  | 
100 | 100 | 100 | OCCCNc1cc(-c2ccnc(Nc3cccc(Cl)c3)n2)ccn1 | 7.8 |  | 
100 | 100 | 100 | COc1cc(C(=O)NC2CCN(C)CC2)ccc1Nc1ncc2c(n1)N(C1CCCC1)C(C)CC(=O)N2C (configuration not stated) |  |  | 
 |  |  | COc1cc(N2CCN(C)CC2)ccc1Nc1nc(N)c(C(=O)c2c(Cl)cccc2Cl)s1 | 72 |  | 
 |  |  | Cc1cc([C@@H](C)Nc2ccccc2C(=O)O)c2nc(N3CCOCC3)cc(=O)n2c1 | 90 | 62 | 
 |  |  | C=CC(=O)Nc1cc(NC(=O)c2ccc(C)c(NC(=O)c3ccno3)c2)cc(C(F)(F)F)c1 | 99 | 94 | 
100 | 100 | 100 | C=CC(=O)Nc1cccc(Oc2nc(Nc3ccc(N4CCN(C)CC4)cc3OC)ncc2Cl)c1 |  |  | 
 |  |  | C[C@@H](Oc1cc(-n2cnc3ccc(CN4CCN(C)CC4)cc32)sc1C(N)=O)c1ccccc1C(F)(F)F | 100 | 62 | 
 |  |  | O=C(NC1CC1)c1cccc(-c2ccc3c(NC(=O)C4CC4)n[nH]c3c2)c1 | 98 | 18 | 
 |  |  | CN(C)C/C=C/C(=O)Nc1cccc(Nc2ncc3c(n2)N(C)c2ccccc2C(=O)N3C)c1 | 73 | 74 | 
 |  |  | CCN1CCN(Cc2ccc(Nc3ncc4c(n3)N(C)c3ccccc3C(=O)N4C)cc2C(F)(F)F)CC1 | 51 | 74 | 
 |  |  | Nc1ccc(-c2ccc3ncc4ccc(=O)n(-c5cccc(C(F)(F)F)c5)c4c3c2)cn1 | 75 | 52 | 
 |  |  | O=C(O)c1ccc(Nc2ncc3c(n2)-c2ccc(Cl)cc2C(c2c(F)cccc2F)=NC3)cc1 | 52 | 63 | 
 |  |  | O=C(NOC[C@H](O)CO)c1ccc(F)c(F)c1Nc1ccc(I)cc1F | 100 | 78 | kinase still bound, per cent of control [6]: 100%; kinase still bound, per cent of control [7]: 100%; kinase still bound, per cent of control [8]: 100%; kinase still bound, per cent of control [9]: 92%; kinase still bound, per cent of control [10]: 100%; kinase still bound, per cent of control [11]: 100%
 |  |  | O=C1Nc2ccc(I)cc2/C1=C/c1cc(Br)c(O)c(Br)c1 | 26 | 24 | 
100 | 100 | 100 | Cn1c(=O)n(-c2ccc(C(C)(C)C#N)cc2)c2c3cc(-c4cnc5ccccc5c4)ccc3ncc21 | 100 |  | 
 |  |  | N#Cc1c(NC(=O)c2cccc3ccccc23)sc2c1CCCC2 | 100 | 81 | kinase still bound, per cent of control [6]: 100%; kinase still bound, per cent of control [7]: 100%; kinase still bound, per cent of control [8]: 100%; kinase still bound, per cent of control [9]: 89%; kinase still bound, per cent of control [10]: 100%; kinase still bound, per cent of control [11]: 100%
 |  |  | C=CC(=O)Nc1cccc(Nc2nc(N[C@H]3CC[C@H](N(C)C)CC3)nc3c2ncn3C(C)C)c1 | 20 | 98 | 

Structure (SMILES) | kinase still bound, per cent of control [1] [%] | kinase still bound, per cent of control [2] [%] | kinase still bound, per cent of control [3] [%] | kinase still bound, per cent of control [4] [%] | kinase still bound, per cent of control [5] [%] | also measured
CCC(=O)N1CCN(c2ccc(-n3c(=O)ccc4cnc5ccc(-c6cnc7ccccc7c6)cc5c43)cc2C(F)(F)F)CC1 |  | 60 |  | 71 | 36 | 
CCOc1cc2ncc(C#N)c(Nc3ccc(OCc4ccccn4)c(Cl)c3)c2cc1NC(=O)/C=C/CN(C)C |  | 100 | 71 | 99 | 88 | 
Cc1ccc2nc(NCCN)c3ncc(C)n3c2c1 | 100 |  |  | 39 | 52 | 
CCCS(=O)(=O)Nc1ccc(F)c(C(=O)c2c[nH]c3ncc(-c4ccc(Cl)cc4)cc23)c1F | 79 | 57 |  | 100 | 0 | 
